According to publication PMC9747611 (Hypertension Research, 2022):
Entries after “also recorded” stand apart in the source; their conditions may differ. Read-outs that look alike come from different tables or passages of the source.

Tests used:
Type in all cases: in vivo, human
plasma cortisol = assay: Plasma and urine cortisol and 11-deoxycortisol (pharmacodynamics, with ACTH challenge in low-salt cohorts)
Description: Cohorts 1 and 2 also underwent an ACTH (Cortrosyn^TM) challenge at baseline (day −1), 1 h after the first dose of study drug on day 1, and 1 h after the final dose of study drug on day 10. This was done to increase aldosterone and cortisol levels to more thoroughly evaluate the specificity of baxdrostat for targeting aldosterone synthase. The ACTH challenge consisted of an intravenous injection of 0.25 mg Cortrosyn^TM administered over 2 min after an overnight fast.
Plasma and urine samples were analyzed to measure concentrations of baxdrostat and its primary metabolite (CIN-107-M), aldosterone and its precursors, cortisol and its precursor, and ACTH using a validated liquid chromatography tandem mass spectrometry method (LC-MS/MS). The quantifiable ranges for both baxdrostat and its metabolite CIN-107-M in plasma and urine were 0.05 to 50 ng/mL (low range) and 5 to 2500 ng/mL (high range), using baxdrostat-d5 and CIN-107-M-d3, respectively, as the internal standards. Plasma samples were extracted by protein precipitation with methanol, followed by analysis by LC-MS/MS with electrospray ionization in positive mode and multiple reaction monitoring. […]
Plasma PD measures included concentrations of aldosterone, 18-hydroxycorticosterone, corticosterone, 11-deoxycorticosterone, cortisol (free and total), 11-deoxycortisol, ACTH, sodium, chloride, and potassium. AUCs were calculated using a noncompartmental analysis and the linear trapezoidal/linear interpolation method. […]
Subjects who received placebo were pooled into 2 treatment groups: placebo with low-salt diet and placebo with normal-salt diet. Descriptive statistics were calculated for PK, PD, and safety measures. […] The results of the exploratory dose proportionality power model were assessed using the Smith criteria (0.9031, 1.0969) and the less stringent Hummel criteria (0.6990, 1.3010).

[1] = Plasma pharmacokinetics of baxdrostat and CIN-107-M, multiple ascending dose phase 1 study; settings: for RAUC (accumulation ratio based on AUC) / RCmax (accumulation ratio based on Cmax): day 10 vs day 1, mean ± SD; for Cmax / Tmax / Vd/F / half-life: human, plasma, po; for Vd/F: read-out: Vss/F
Description: Subjects were randomized in a 3:1 ratio to baxdrostat or placebo once daily for 10 days as follows: • Cohort 1: 2.5 mg baxdrostat or matching placebo on a low-salt diet, 9 subjects receiving baxdrostat and 3 subjects receiving placebo • Cohort 2: 5.0 mg baxdrostat or matching placebo on a low-salt diet, 9 subjects receiving baxdrostat and 3 subjects receiving placebo • Cohort 3: 1.5 mg baxdrostat or matching placebo on a normal-salt diet, 9 subjects receiving baxdrostat and 3 subjects receiving placebo • Cohort 4: 2.5 mg baxdrostat or matching placebo on a normal-salt diet, 6 subjects receiving baxdrostat and 2 subjects receiving placebo • Cohort 5: 0.5 mg baxdrostat or matching placebo on a normal-salt diet, 9 subjects receiving baxdrostat and 3 subjects receiving placebo.
The study drug was a 2 mg/mL baxdrostat oral solution and matching oral placebo solution. Subjects received a single dose of oral solution of baxdrostat or placebo on the mornings of days 1 through 10 at 8:00 a.m. (± 2 h). On days 1 and 10, the dose was given following an overnight fast (of at least 8 h), and subjects remained fasted for at least 4 h after dosing on these days. On all other days, subjects fasted for a minimum of 2 h before and 2 h after dosing.
(§1) Plasma and urine samples were analyzed to measure concentrations of baxdrostat and its primary metabolite (CIN-107-M), aldosterone and its precursors, cortisol and its precursor, and ACTH using a validated liquid chromatography tandem mass spectrometry method (LC-MS/MS). The quantifiable ranges for both baxdrostat and its metabolite CIN-107-M in plasma and urine were 0.05 to 50 ng/mL (low range) and 5 to 2500 ng/mL (high range), using baxdrostat-d5 and CIN-107-M-d3, respectively, as the internal standards. Plasma samples were extracted by protein precipitation with methanol, followed by analysis by LC-MS/MS with electrospray ionization in positive mode and multiple reaction monitoring. All scheduled study-related laboratory tests were performed by Medpace Reference Laboratories (Cincinnati, OH, USA), Medpace Bioanalytical Laboratories (Cincinnati, OH, USA), Mercy Health—West Hospital Laboratory (Cincinnati, OH, USA), or Laboratory Corporation of America (Dublin, OH, USA).
Blood samples were collected prior to and after dosing on days 1 and 10 for measurement of plasma baxdrostat and CIN-107-M concentrations to characterize single-dose and steady-state PK. Pharmacokinetic parameters were calculated by standard noncompartmental methods using Phoenix WinNonlin™ (Certara, Inc., Princeton, NJ) and verified with SAS (SAS Institute, Inc., Cary, NC) software. […] Steady-state plasma PK parameters consisted of accumulation ratio based on Cmax (RCmax), accumulation ratio based on AUC (RAUC), apparent first-order terminal elimination rate constant (λz), terminal phase elimination half-life (t1/2), apparent plasma clearance (CLss/F), and apparent volume of distribution (Vss/F).

[2] = Urine pharmacokinetics (fraction of dose excreted renally)
Description: as §1
The cumulative amount of drug excreted in urine on day 1 (Ae,D1) and day 10 (Ae,D10), fraction of dose excreted renally on day 1 (Fe,D1) and day 10 (Fe,D10), and renal clearance on day 1 (CLR,D1) and day 10 (CLR,D10) composed single-dose urine PK parameters.

[3] = Plasma electrolytes and renal function (pharmacodynamics)
Description: Plasma PD measures included concentrations of aldosterone, 18-hydroxycorticosterone, corticosterone, 11-deoxycorticosterone, cortisol (free and total), 11-deoxycortisol, ACTH, sodium, chloride, and potassium. AUCs were calculated using a noncompartmental analysis and the linear trapezoidal/linear interpolation method. Urine PD measures included concentrations of aldosterone, cortisol (free and total), tetrahydroaldosterone, sodium, chloride, potassium, creatinine, and phosphorus. Other PD measures were seated, orthostatic, and positional changes in vital signs, as well as changes in body weight and BMI. Safety assessments involved adverse events, physical examinations, ECGs, orthostatic vital signs, and clinical laboratory evaluations.

[4] = also with ACTH challenge in low-salt diet groups
[5] = 0.5 mg oral once daily, normal-salt diet, day 10, mean ± SD
[6] = 0.5 mg oral once daily, normal-salt diet
[7] = 1.5 mg oral once daily, normal-salt diet, day 10, mean ± SD
[8] = 1.5 mg oral once daily, normal-salt diet
[9] = 2.5 mg oral once daily, low-salt diet, day 10, mean ± SD
[10] = 2.5 mg oral once daily, low-salt diet
[11] = 2.5 mg oral once daily, normal-salt diet, day 10, mean ± SD, n=5
[12] = 2.5 mg oral once daily, normal-salt diet, n=5
[13] = 5.0 mg oral once daily, low-salt diet, day 10, mean ± SD
[14] = 5.0 mg oral once daily, low-salt diet
[15] = 0.5-5.0 mg once daily for 10 days

CCC(=O)N[C@@H]1CCCc2c(-c3ccc4c(c3)CCC(=O)N4C)cncc21 [baxdrostat]
effect on urine free cortisol (plasma cortisol; 24 h urine collections): no meaningful effect
effect on plasma 11-deoxycortisol (plasma cortisol; [4]): no meaningful effect
effect on plasma cortisol (total or free) (plasma cortisol; [4]): no meaningful impact; also recorded: no meaningful effect
AUC0-24hr ([1]; 0.5 mg oral once daily, normal-salt diet, day 1, mean ± SD): 79.47 ± 17.34 h‧ng/mL
AUC0-tau [1, 5]: 155.19 ± 35.70 h‧ng/mL
CLss/F [1, 5]: 3.42 ± 1.01 L/h
RAUC (accumulation ratio based on AUC) [1, 6]: 1.96 ± 0.27
RCmax (accumulation ratio based on Cmax) [1, 6]: 1.83 ± 0.26
AUC0-24hr ([1]; 1.5 mg oral once daily, normal-salt diet, day 1, mean ± SD): 205.31 ± 36.74 h‧ng/mL
AUC0-tau [1, 7]: 479.67 ± 138.21 h‧ng/mL
CLss/F [1, 7]: 3.35 ± 0.92 L/h
RAUC (accumulation ratio based on AUC) [1, 8]: 2.31 ± 0.32
RCmax (accumulation ratio based on Cmax) [1, 8]: 2.13 ± 0.24
AUC0-24hr ([1]; 2.5 mg oral once daily, low-salt diet, day 1, mean ± SD): 365.79 ± 65.51 h‧ng/mL
AUC0-tau [1, 9]: 782.99 ± 143.02 h‧ng/mL
CLss/F [1, 9]: 3.28 ± 0.53 L/h
RAUC (accumulation ratio based on AUC) [1, 10]: 2.15 ± 0.16
RCmax (accumulation ratio based on Cmax) [1, 10]: 1.97 ± 0.30
AUC0-24hr ([1]; 2.5 mg oral once daily, normal-salt diet, day 1, mean ± SD): 343.98 ± 92.44 h‧ng/mL
AUC0-tau [1, 11]: 676.51 ± 343.78 h‧ng/mL
CLss/F [1, 11]: 4.32 ± 1.59 L/h
RAUC (accumulation ratio based on AUC) [1, 12]: 1.99 ± 0.45
RCmax (accumulation ratio based on Cmax) [1, 12]: 1.71 ± 0.58
AUC0-24hr ([1]; 5.0 mg oral once daily, low-salt diet, day 1, mean ± SD): 657.85 ± 137.40 h‧ng/mL
AUC0-tau [1, 13]: 1659.41 ± 440.51 h‧ng/mL
CLss/F [1, 13]: 3.21 ± 0.84 L/h
RAUC (accumulation ratio based on AUC) [1, 14]: 2.51 ± 0.26
RCmax (accumulation ratio based on Cmax) [1, 14]: 2.42 ± 0.33
dose proportionality of Cmax and AUC (power model, Hummel criteria) ([1]; day 1 (Cmax, AUC0-24 h) and day 10 (Cmax, AUC0-tau, AUC0-t)): proportional increase
Cmax ([1]; 0.5 mg, 0.5 mg oral once daily, normal-salt diet, day 1, mean ± SD, n=9, read-out: Cmax,D1): 5.36 ± 1.25 ng/mL
Tmax ([1]; 0.5 mg, 0.5 mg oral once daily, normal-salt diet, day 1, read-out: Tmax,D1, median (min, max)): 2 h
Cmax ([1]; 0.5 mg, 0.5 mg oral once daily, normal-salt diet, day 10, mean ± SD, read-out: Cmax,D10): 9.72 ± 2.27 ng/mL
Vd/F ([1]; 0.5 mg, 0.5 mg oral once daily, normal-salt diet, day 10, mean ± SD): 152 ± 44.5 L
half-life ([1]; 0.5 mg, 0.5 mg oral once daily, normal-salt diet, day 10, mean ± SD, read-out: t1/2 (converted)): 31.2 ± 5.8 h
Tmax ([1]; 0.5 mg, 0.5 mg oral once daily, normal-salt diet, day 10, read-out: Tmax,D10, median (min, max)): 2 h
Cmax ([1]; 1.5 mg, 1.5 mg oral once daily, normal-salt diet, day 1, mean ± SD, n=9, read-out: Cmax,D1): 14 ± 2.24 ng/mL
Tmax ([1]; 1.5 mg, 1.5 mg oral once daily, normal-salt diet, day 1, read-out: Tmax,D1, median (min, max)): 2.5 h
Cmax ([1]; 1.5 mg, 1.5 mg oral once daily, normal-salt diet, day 10, mean ± SD, read-out: Cmax,D10): 29.9 ± 6.1 ng/mL
Vd/F ([1]; 1.5 mg, 1.5 mg oral once daily, normal-salt diet, day 10, mean ± SD): 137 ± 15.8 L
half-life ([1]; 1.5 mg, 1.5 mg oral once daily, normal-salt diet, day 10, mean ± SD, read-out: t1/2 (converted)): 29.9 ± 7.71 h
Tmax ([1]; 1.5 mg, 1.5 mg oral once daily, normal-salt diet, day 10, read-out: Tmax,D10, median (min, max)): 2.5 h
Cmax ([1]; 2.5 mg, 2.5 mg oral once daily, low-salt diet, day 1, mean ± SD, n=9, read-out: Cmax,D1): 28.1 ± 5.9 ng/mL
Tmax ([1]; 2.5 mg, 2.5 mg oral once daily, low-salt diet, day 1, read-out: Tmax,D1, median (min, max)): 3 h
Cmax ([1]; 2.5 mg, 2.5 mg oral once daily, low-salt diet, day 10, mean ± SD, read-out: Cmax,D10): 54 ± 7.56 ng/mL
Vd/F ([1]; 2.5 mg, 2.5 mg oral once daily, low-salt diet, day 10, mean ± SD): 135 ± 36.7 L
half-life ([1]; 2.5 mg, 2.5 mg oral once daily, low-salt diet, day 10, mean ± SD, read-out: t1/2 (converted)): 28.4 ± 4.75 h
Tmax ([1]; 2.5 mg, 2.5 mg oral once daily, low-salt diet, day 10, read-out: Tmax,D10, median (min, max)): 2 h
Cmax ([1]; 2.5 mg, 2.5 mg oral once daily, normal-salt diet, day 1, mean ± SD, n=6, read-out: Cmax,D1): 26.2 ± 4.76 ng/mL
Tmax ([1]; 2.5 mg, 2.5 mg oral once daily, normal-salt diet, day 1, read-out: Tmax,D1, median (min, max)): 3 h
Cmax ([1]; 2.5 mg, 2.5 mg oral once daily, normal-salt diet, day 10, mean ± SD, n=5, read-out: Cmax,D10): 43.9 ± 18.7 ng/mL
Vd/F ([1]; 2.5 mg, 2.5 mg oral once daily, normal-salt diet, day 10, mean ± SD, n=5): 150 ± 42.4 L
half-life ([1]; 2.5 mg, 2.5 mg oral once daily, normal-salt diet, day 10, mean ± SD, n=5, read-out: t1/2 (converted)): 25.6 ± 5.95 h
Tmax ([1]; 2.5 mg, 2.5 mg oral once daily, normal-salt diet, day 10, n=5, read-out: Tmax,D10, median (min, max)): 3 h
Cmax ([1]; 5 mg, 5.0 mg oral once daily, low-salt diet, day 1, mean ± SD, n=9, read-out: Cmax,D1): 47.3 ± 12.3 ng/mL
Tmax ([1]; 5 mg, 5.0 mg oral once daily, low-salt diet, day 1, read-out: Tmax,D1, median (min, max)): 3.02 h
Cmax ([1]; 5 mg, 5.0 mg oral once daily, low-salt diet, day 10, mean ± SD, read-out: Cmax,D10): 113 ± 25.9 ng/mL
Vd/F ([1]; 5 mg, 5.0 mg oral once daily, low-salt diet, day 10, mean ± SD): 134 ± 42 L
half-life ([1]; 5 mg, 5.0 mg oral once daily, low-salt diet, day 10, mean ± SD, read-out: t1/2 (converted)): 29.4 ± 6.47 h
Tmax ([1]; 5 mg, 5.0 mg oral once daily, low-salt diet, day 10, read-out: Tmax,D10, median (min, max)): 3 h
Tmax ([1]; across doses 0.5-5.0 mg oral once daily, read-out: median Tmax (time to peak plasma concentration after dosing)): ≤ 4 h
half-life ([1]; range across doses 0.5-5.0 mg oral once daily for 10 days, read-out: mean t1/2): 26 to 31 h
baxdrostat dose recovered unchanged in the urine ([2]; day 1): Approximately 7%
baxdrostat dose recovered unchanged in the urine ([2]; steady state (day 10)): ~ 32%
change in plasma potassium levels [3, 15]: increases
change in plasma sodium levels [3, 15]: mild dose-dependent decreases
reduction in glomerular filtration rate ([3]; once daily for 10 days): < 15%
